Measured values taken from patent US12495798B2, “Nicotinamide compound and herbicidal composition comprising compound” (KOREA RESEARCH INSTITUTE OF CHEMICAL TECHNOLOGY, priority 2019, dated 2025).

What was measured:
Format in all cases: in vivo
indian jointvetch [1] = assay: Herbicidal activity test against upland field weeds (soil treatment test); design: key to Soil treatment herbicidal activity, Indian jointvetch: 0 (no control); 100 (complete control); details: 50 g ai/ha, scale 0 (no control) to 100 (complete control)
Experimental: (§1) Experimental Example 2: Herbicidal Activity Test Against Upland Field Weeds (Soil Treatment Test) Soil treatment was performed as follows: After filling a square plastic pot having a surface area of 350 cm^2 with sandy loam mixed with 1 g per pot (350 cm^2) of horticultural mixed fertilizer (N:P:K=11:10:11), seeds (10˜15 grains) or rootstocks (2 pieces) of 5 kinds of grassy weeds of sorghum, barnyard grass, quack grass, crabgrass, fall panicum, and 5 kinds of broadleaf weeds of black nightshade, indian jointvetch, velvetleaf, cocklebur, bindweed, which had been stored in a low temperature (6° C.), were sown. The day after sowing, test compound solutions were made by diluting with a preparation solution (including 50% acetone, 0.1% Tween-20) so that the final treatment amount of the test compounds was 50 or 75 g a.i./ha. The prepared test compound solution was used for treating soil surface by hand-spraying 14 mL per pot in a fume hood. After the treatment, it was managed under the same greenhouse conditions (average temperature 30±5° C., light/dark=14/10 hours), and after 14 days (after 21 days if necessary), the external symptoms and efficacy were investigated according to the scale of 0 (no control) to 100 (complete control). The results of Table 8 were obtained by evaluating weed control value to the untreated control by conducting visual assessment.

crabgrass [2] = assay: as above; design: key to Soil treatment herbicidal activity, Crabgrass: 0 (no control); 100 (complete control); details: 50 g ai/ha, scale 0 (no control) to 100 (complete control); for pest or weed control at 50 g/ha: Digitaria sanguinalis
Experimental: as §1

indian jointvetch [3] = assay: Herbicidal activity test against upland field weeds (foliar treatment test); design: key to Foliar treatment herbicidal activity, Indian jointvetch: 0 (no control); 100 (complete control); details: 50 g ai/ha, scale 0-100
In short: (§2)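 Greenhouse-grown plants (30±5 °C, 14/10 h light/dark) foliar hand-sprayed with compound in 50% acetone, 0.1% Tween-20 at 50 or 75 g a.i./ha. Control visually scored 0 (none) to 100 (complete) versus untreated after 14 days, or 21 days if needed.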

barnyard grass [4] = assay: Herbicidal activity test against upland field weeds (soil treatment test); design: key to Soil treatment herbicidal activity, barnyard grass: 0 (no control); 100 (complete control); details: 50 g ai/ha, scale 0 (no control) to 100 (complete control)
Experimental: as §1

velvetleaf [5] = assay: Herbicidal activity test against upland field weeds (foliar treatment test); design: key to Foliar treatment herbicidal activity, velvet leaf: 0 (no control); 100 (complete control); details: 50 g ai/ha; for pest or weed control at 50 g/ha: Abutilon theophrasti, scale 0-100, read-out: Foliar treatment herbicidal activity, velvet leaf; for Foliar treatment herbicidal activity, velvet leaf: scale 0-100
In short: as §2

bindweed [6] = assay: Herbicidal activity test against upland field weeds (soil treatment test); design: key to Soil treatment herbicidal activity, Bindweed: 0 (no control); 100 (complete control); details: 50 g ai/ha, scale 0 (no control) to 100 (complete control)
Experimental: as §1

fall panicum [7] = assay: as above; design: key to Soil treatment herbicidal activity, Fall panicum: 0 (no control); 100 (complete control); details: 50 g ai/ha, scale 0 (no control) to 100 (complete control)
Experimental: as §1

black nightshade [8] = assay: Herbicidal activity test against upland field weeds (foliar treatment test); design: key to Foliar treatment herbicidal activity, black nightshade: 0 (no control); 100 (complete control); details: 50 g ai/ha, scale 0-100; for pest or weed control at 50 g/ha: Solanum nigrum
In short: as §2

sorghum [9] = assay: Herbicidal activity test against upland field weeds (soil treatment test); design: key to Soil treatment herbicidal activity, Sorghum: 0 (no control); 100 (complete control); details: 50 g ai/ha, scale 0 (no control) to 100 (complete control)
Experimental: as §1

cocklebur = assay: Herbicidal activity test against upland field weeds (foliar treatment test); design: key to Foliar treatment herbicidal activity, Cocklebur: 0 (no control); 100 (complete control); details: 50 g ai/ha, scale 0-100; for pest or weed control at 50 g/ha: Xanthium strumarium
In short: as §2

fall panicum [10] = assay: as above; design: key to Foliar treatment herbicidal activity, Fall panicum: 0 (no control); 100 (complete control); details: 50 g ai/ha, scale 0-100; for pest or weed control at 50 g/ha: Panicum dichotomiflorum
In short: as §2

bindweed [11] = assay: as above; design: key to Foliar treatment herbicidal activity, Bindweed: 0 (no control); 100 (complete control); details: 50 g ai/ha, scale 0-100
In short: as §2

crabgrass [12] = assay: as above; design: key to Foliar treatment herbicidal activity, Crabgrass: 0 (no control); 100 (complete control); details: 50 g ai/ha, scale 0-100; for pest or weed control at 50 g/ha: Digitaria sanguinalis
In short: as §2

barnyard grass [13] = assay: as above; design: key to Foliar treatment herbicidal activity, barnyard grass: 0 (no control); 100 (complete control); details: 50 g ai/ha, scale 0-100; for pest or weed control at 50 g/ha: Echinochloa crus-galli
In short: as §2

black nightshade [14] = assay: Herbicidal activity test against upland field weeds (soil treatment test); design: key to Soil treatment herbicidal activity, black nightshade: 0 (no control); 100 (complete control); details: 50 g ai/ha, scale 0 (no control) to 100 (complete control)
Experimental: as §1

quack grass [15] = assay: as above; design: key to Soil treatment herbicidal activity, quack grass: 0 (no control); 100 (complete control); details: 50 g ai/ha, scale 0 (no control) to 100 (complete control)
Experimental: as §1

velvetleaf [16] = assay: as above; design: key to Soil treatment herbicidal activity, velvet leaf: 0 (no control); 100 (complete control); details: 50 g ai/ha, scale 0 (no control) to 100 (complete control)
Experimental: as §1

sorghum [17] = assay: Herbicidal activity test against upland field weeds (foliar treatment test); design: key to Foliar treatment herbicidal activity, Sorghum: 0 (no control); 100 (complete control); details: 50 g ai/ha, scale 0-100; for plant injury at 50 g/ha: Sorghum
In short: as §2

quack grass [18] = assay: as above; design: key to Foliar treatment herbicidal activity, quack grass: 0 (no control); 100 (complete control); details: 50 g ai/ha, scale 0-100
In short: as §2

Row | Compound | Soil treatment herbicidal activity, Indian jointvetch (indian jointvetch [1]) | pest or weed control at 50 g/ha (crabgrass [2]) | pest or weed control at 50 g/ha (indian jointvetch [3]) | Soil treatment herbicidal activity, barnyard grass (barnyard grass [4]) | pest or weed control at 50 g/ha (velvetleaf [5]) | pest or weed control at 50 g/ha (bindweed [6]) | Soil treatment herbicidal activity, Fall panicum (fall panicum [7]) | pest or weed control at 50 g/ha (black nightshade [8]) | Soil treatment herbicidal activity, Sorghum (sorghum [9]) | pest or weed control at 50 g/ha (cocklebur) | pest or weed control at 50 g/ha (bindweed [11]) | Foliar treatment herbicidal activity, Crabgrass (crabgrass [12]) | Foliar treatment herbicidal activity, barnyard grass (barnyard grass [13]) | Soil treatment herbicidal activity, black nightshade (black nightshade [14]) | Soil treatment herbicidal activity, quack grass (quack grass [15]) | Soil treatment herbicidal activity, velvet leaf (velvetleaf [16]) | Soil treatment herbicidal activity, Crabgrass (crabgrass [2]) | pest or weed control at 50 g/ha (fall panicum [10]) | Foliar treatment herbicidal activity, quack grass (quack grass [18]) | plant injury at 50 g/ha (sorghum [17]) | other results
1 | CN(C(=O)c1ccc(C(F)(F)F)nc1OCc1nnnn1C(F)F)c1nnnn1C [Compound No. 1-8, 2-((1-(difluoromethyl)-1H-tetrazol-5-yl)methoxy)-N-methyl-N-(1-methyl-1H-tetrazol-5-yl)-6-(trifluoromethyl)nicotinamide] | 100 | 30% | 70% | 0 | 20% | 50% | 0 | 98% | 0 | 20% | 40% | 0 | 0 | 0 | 0 | 100 |  |  |  |  | Foliar treatment herbicidal activity, Fall panicum (fall panicum [10]): 0; Foliar treatment herbicidal activity, Sorghum (sorghum [17]): 0
2 | Cn1cnc(COc2nc(C(F)(F)F)ccc2C(=O)Nc2nnnn2C)n1 [Compound No. 2-43, 2-((1-methyl-1H-1,2,4-triazol-3-yl)methoxy)-N-(1-methyl-1H-tetrazol-5-yl)-6-(trifluoromethyl)nicotinamide] |  |  | 20% | 0 | 40% |  | 0 | 95% | 0 | 20% | 30% |  |  |  | 0 |  | 0 | 50% | 0 | 20% | pest or weed control at 50 g/ha (indian jointvetch [1]): 20%; Soil treatment herbicidal activity, Bindweed (bindweed [6]): 0; pest or weed control at 50 g/ha (crabgrass [12]): 30%; pest or weed control at 50 g/ha (barnyard grass [13]): 60%; pest or weed control at 50 g/ha (velvetleaf [16]; Abutilon theophrasti, read-out: Soil treatment herbicidal activity, velvet leaf): 30%
3 | Cn1cnc(COCc2nc(C(F)(F)C(F)(F)F)ccc2C(=O)Nc2nnnn2C)n1 [Compound No. 2-83, 2-(((1-methyl-1H-1,2,4-triazol-3-yl)methoxy)methyl)-N-(1-methyl-1H-tetrazol-5-yl)-6-(perfluoroethyl)nicotinamide] |  | 70% | 70% | 0 | 70% | 40% |  | 98% | 0 | 60% | 40% |  |  | 100 | 0 | 100 |  | 70% | 0 | 20% | pest or weed control at 50 g/ha (indian jointvetch [1]): 80%; pest or weed control at 50 g/ha (fall panicum [7]; Panicum dichotomiflorum): 60%; pest or weed control at 50 g/ha (crabgrass [12]): 70%; pest or weed control at 50 g/ha (barnyard grass [13]): 90%
4 | CC(C)OC(=O)OC(C)N(C(=O)c1ccc(C(F)(F)F)nc1COCc1nnn(C)n1)c1nnnn1C (centres unmarked) [Compound No. 4-12, isopropyl(1-(N-(1-methyl-1H-tetrazol-5-yl)-2-(((2-methyl-2H-tetrazol-5-yl)methoxy)methyl)-6-(trifluoromethyl)nicotinamido)ethyl)carbonate] | 40 |  |  | 100 |  |  | 90 |  | 20 |  |  | 95 | 100 | 100 | 0 | 100 | 100 |  | 0 |  | Foliar treatment herbicidal activity, Indian jointvetch (indian jointvetch [3]): 98; Foliar treatment herbicidal activity, velvet leaf (velvetleaf [5]): 100; Soil treatment herbicidal activity, Bindweed (bindweed [6]): 98; Foliar treatment herbicidal activity, black nightshade (black nightshade [8]): 100; Foliar treatment herbicidal activity, Cocklebur (cocklebur): 98; Foliar treatment herbicidal activity, Fall panicum (fall panicum [10]): 98; Foliar treatment herbicidal activity, Bindweed (bindweed [11]): 100; Foliar treatment herbicidal activity, Sorghum (sorghum [17]): 70
5 | CN(Cc1nnnn1C)c1nc(C(F)(F)F)ccc1C(=O)Nc1nnnn1C [Compound No. 1-27, 2-(methyl((1-methyl-1H-tetrazol-5-yl)methyl)amino)-N-(1-methyl-1H-tetrazol-5-yl)-6-(trifluoromethyl)nicotinamide] | 100 |  |  | 100 |  | 80% | 100 |  | 100 |  |  | 100 | 100 | 100 |  | 100 | 100 | 80% |  | 80% | Foliar treatment herbicidal activity, Indian jointvetch (indian jointvetch [3]): 100; Foliar treatment herbicidal activity, velvet leaf (velvetleaf [5]): 100; Foliar treatment herbicidal activity, Cocklebur (cocklebur): 100; pest or weed control at 50 g/ha (quack grass [18]): 30%; Foliar treatment herbicidal activity, Bindweed (bindweed [11]): 100; pest or weed control at 50 g/ha (quack grass [15]): 20%
